Data on one compound can be found in US20090215710A1, “CARBOHYDRATE BASED TOLL-LIKE RECEPTOR (TLR) ANTAGONISTS” (RELIANCE LIFE SCIENCES PVT. LTD., priority 2007, published 2009).

Assay [1] has as its target T1, TLR2 (Homo sapiens, UniProt O60603).
T1 construct: endogenous in cells; host or cells: THP-1 monocytes and PBMCs
The experiment in a line: TLR2 ligand induced TNF-α secretion in THP-1 cells and PBMCs (ELISA). Type of assay: cell-based. The following applies: TLR2 ligand 75 ng/ml, 1 hr pre-treatment, 24 hrs. The procedure: (§1) The present invention has checked the effect of various TLR ligands on THP-1 monocytes, PBMCs and their ability to activate and release TNF-α. For this purpose about 9 TLR ligands were used. These ligands were obtained from Apotech Cat; APO-54N-018-K100 and assayed for TNF-α release in culture supernatants.
(§2) THP-1 and PBMCs (2×10^5 cells/well) were plated in 96-well plate. The cells were pretreated with RSCL-0409 in DMSO 1 hr prior to TLR ligand treatment. Following 1 hr pre-treatment, the cells were treated with TLR ligands [TLR2, TLR5 and TLR6-75 ng/ml each, TLR3-75 μg/ml, TLR4-750 ng/ml, TLR7, TLR8 and TLR9-7.5 μg/ml) for 24 hrs. The culture supernatant were collected after the stipulated time and assayed for TNF-α release using a Duoset Enzyme-Linked ImmunoSorbent Assay (ELISA) detection Kit (R&D systems, MN 55413, USA; Cat: DY-210 E). Simultaneously supernatants were collected from cells treated with ligands without pre-treatment with RSCL-0409 and only RSCL-0409 without ligand treatment.
A general note: ELISA stands for enzyme-linked immunosorbent assay.

The subject of assay [2] is TNF-α. Description: LPS induced TNF-α secretion in THP-1 monocytes, dose dependence (ELISA). Type of assay: cell-based, human. The settings on record: THP-1, LPS 250 ng/ml, 100, 50, 10 and 1 μM, 24 hr. How it is done:
To confirm whether the inhibitory effect of RSCL-0409 is dose-dependent, the present invention has studied the ability of RSCL-0409 to inhibit TNF-α secretion from LPS (250 ng/ml) induced THP-1 monocytes (FIG. 2a).
THP-1, 2×10^5 cells/well was plated in 96-well plate. The cells were pretreated with RSCL-0409 at various concentrations (100 μM, 50 μM, 10 μM and 1 μM) 1 hr prior to LPS stimulation. As a control group, cells were treated with LPS alone and cells treated with RSCL-0409 alone were used. TNF-α secretion was estimated in the culture supernatants following 24 hr LPS stimulation using Duoset ELISA detection Kit (R&D systems, MN, USA). *P<0.05, ***P<0.001 values are comparisons for LPS treated vs. RSCL-0409 treated, NS indicates not significant.

Assay [3] has as its target T2, TLR4 (Homo sapiens, UniProt O00206).
T2 construct: endogenous in cells; host or cells: THP-1 monocytes and PBMCs
Description: TLR4 ligand induced TNF-α secretion in THP-1 cells and PBMCs (ELISA). The following applies: TLR4 ligand 750 ng/ml, 1 hr pre-treatment, 24 hrs. Type of assay: cell-based. How it is done:
as §1, §2

Assay [4] deals with ICAM-1, COX-2, IL-1β and IL-8 genes. Description: mRNA expression of pro-inflammatory genes in THP-1 cells. Type of assay: cell-based, human. The following applies: THP-1, LPS 250 ng/ml. How it is done:
The inhibitory effect of the present invention, RSCL-0409 on mRNA was checked on pro-inflammatory genes like intercellular adhesion molecule1 (ICAM-1), cyclooxygenase 2 (COX-2), IL-1β and IL-8. THP-1 cells (3×10^6 cells) were seeded in a 6-well dish. The cells were treated with RSCL-0409 ([…]) for 1 hr followed by incubation with or without 250 ng/ml of LPS. After two washes with ice-cold PBS, the cells were harvested and total cellular RNA was isolated using TRIZOL Reagent (Invitrogen) according to the manufacturer's instructions. cDNA synthesis was done using high capacity cDNA reverse transcription kit (ABI systems). Amplification of ICAM-1, COX-2, IL-1β and IL-8 genes from the cDNA was carried out using the respective gene specific primers.

In assay [5] the test system is TNF-α. The experiment in a line: LPS induced TNF-α release in human PBMC. Type of assay: cell-based. The following applies: PBMC isolated from human blood. An excerpt: In order to evaluate the ability of RSCL-0409 to inhibit LPS induced TNF-α secretion in a physiological scenario, the present invention has tested the same in PBMC isolated from human blood (FIG. 3). […] The TNF levels were not detectable in PBMCs without LPS and with RSCL-0409 treatment alone, indicating its specificity in LPS induced TNF-α through a TLR mediated process. ***P<0.001 value is for LPS treated vs. RSCL-0409 treated.

The test system of assay [6] is TNF-α. Description: TNF response to increasing concentration of LPS in THP-1 cells. The class given is cell-based, human. The following applies: LPS 1000 ng/ml. How it is done:
The present invention has also conducted experiments to check the ability of RSCL-0409 to inhibit LPS induced TNF-α secretion from THP-1 cells, wherein the studies involved the stimulation of THP-1 cells with increasing concentrations of LPS (62.5 ng/ml to 1000 ng/ml) with and without pre-treatment of cells with different concentrations of RSCL-0409.

Assay [7] concerns TIRAP and MyD88. The experiment in a line: Protein levels of TIRAP and MyD88 in LPS stimulated THP-1 cells (immunoblot). The settings on record: THP-1, LPS 250 ng/ml, 1 hr pre-treatment. The class given is cell-based, human. The procedure:
Further confirmation was obtained at the protein level. Serum-starved THP-1 cells were stimulated with LPS (250 ng/ml) for the indicated time in the presence and absence of RSCL-0409. RSCL-0409 treatment was 1 hr prior to LPS treatment. Immunoblotting of total protein was carried out as before to determine protein levels of TIRAP and MyD88.

For assay [8], the system named is TLR related genes (TIRAP, IRAK1, IRAK4, TRAF6, TRIF). Description: mRNA expression of TLR related genes in LPS stimulated THP-1 cells (PCR). The class given is cell-based, human. The settings on record: THP-1, LPS 250 ng/ml 1 hr. The procedure:
Serum-starved THP-1 cells were stimulated with LPS (250 ng/ml) for 1 hr in the presence and absence of RSCL-0409. Total RNA was isolated from treated cells post LPS exposure. The cDNA was used for PCR against specific primers for the TLR related genes and β-actin was used as internal control.
To rule out the possibility of a TRIF dependent pathway, a MyD88 independent path, we have checked its expression levels also in the treated cells.

The structures appear in SMILES notation.

T2 sequence (O00206 24-839): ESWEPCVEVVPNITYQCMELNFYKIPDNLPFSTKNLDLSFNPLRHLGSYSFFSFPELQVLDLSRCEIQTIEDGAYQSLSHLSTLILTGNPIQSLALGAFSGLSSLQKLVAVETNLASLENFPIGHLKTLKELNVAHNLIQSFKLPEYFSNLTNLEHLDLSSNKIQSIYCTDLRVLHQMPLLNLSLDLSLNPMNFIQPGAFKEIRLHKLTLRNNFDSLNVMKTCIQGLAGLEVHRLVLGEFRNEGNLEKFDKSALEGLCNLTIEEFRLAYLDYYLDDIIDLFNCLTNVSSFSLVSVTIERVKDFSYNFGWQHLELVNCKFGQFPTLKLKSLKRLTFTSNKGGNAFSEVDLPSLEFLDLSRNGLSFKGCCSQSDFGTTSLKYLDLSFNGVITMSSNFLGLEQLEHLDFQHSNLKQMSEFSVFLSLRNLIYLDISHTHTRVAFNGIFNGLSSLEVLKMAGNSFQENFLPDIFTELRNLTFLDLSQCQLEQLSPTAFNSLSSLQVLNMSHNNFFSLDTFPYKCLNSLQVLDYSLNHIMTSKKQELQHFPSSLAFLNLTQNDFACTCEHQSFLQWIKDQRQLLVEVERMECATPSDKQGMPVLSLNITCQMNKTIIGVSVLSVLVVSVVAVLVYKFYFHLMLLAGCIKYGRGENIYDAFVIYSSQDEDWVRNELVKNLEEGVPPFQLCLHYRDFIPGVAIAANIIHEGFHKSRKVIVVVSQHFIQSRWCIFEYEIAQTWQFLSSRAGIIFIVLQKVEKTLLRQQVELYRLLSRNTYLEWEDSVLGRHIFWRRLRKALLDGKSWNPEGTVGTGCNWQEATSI
T2 sequence (Q9Y6Y9 17-160 partner limits assumed): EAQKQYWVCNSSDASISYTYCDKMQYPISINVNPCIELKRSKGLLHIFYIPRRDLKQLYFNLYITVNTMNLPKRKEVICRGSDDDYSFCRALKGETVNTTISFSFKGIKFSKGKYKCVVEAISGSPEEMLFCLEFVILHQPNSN
T1 sequence (O60603 21-784): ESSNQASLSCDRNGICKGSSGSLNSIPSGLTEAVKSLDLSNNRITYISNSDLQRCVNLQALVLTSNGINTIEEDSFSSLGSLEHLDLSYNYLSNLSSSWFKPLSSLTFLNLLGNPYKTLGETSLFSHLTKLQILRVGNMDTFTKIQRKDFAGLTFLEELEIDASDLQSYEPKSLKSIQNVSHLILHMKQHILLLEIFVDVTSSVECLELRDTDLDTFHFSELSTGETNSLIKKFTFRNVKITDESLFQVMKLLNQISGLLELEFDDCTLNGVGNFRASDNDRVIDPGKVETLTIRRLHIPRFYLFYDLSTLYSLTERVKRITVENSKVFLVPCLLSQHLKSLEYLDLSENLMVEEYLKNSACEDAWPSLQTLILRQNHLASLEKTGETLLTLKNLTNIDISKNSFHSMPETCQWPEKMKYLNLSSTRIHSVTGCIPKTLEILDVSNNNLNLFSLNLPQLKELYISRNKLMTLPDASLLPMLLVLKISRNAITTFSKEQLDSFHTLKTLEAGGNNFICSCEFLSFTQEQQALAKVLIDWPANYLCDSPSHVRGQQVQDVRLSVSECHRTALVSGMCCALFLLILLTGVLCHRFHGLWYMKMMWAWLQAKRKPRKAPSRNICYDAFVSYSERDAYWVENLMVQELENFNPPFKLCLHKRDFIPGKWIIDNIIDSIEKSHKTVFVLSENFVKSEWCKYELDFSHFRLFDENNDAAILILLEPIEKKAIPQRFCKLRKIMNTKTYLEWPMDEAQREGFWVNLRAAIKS

With `COc1ccc(OC2OC3COC(c4ccccc4)OC3C(OC3OC(COC(=O)CCC(C)=O)C(OC(=O)CCl)C(OC(C)=O)C3OC(C)=O)C2NC(=O)C(Cl)(Cl)Cl)cc1` [RSCL-0409, p-Methoxy phenyl-O-(2,3-di-O-acetyl-4-O-chloroacetyl-6-O-levulinoyl-β-D-glucopyranosyl)-(1-3)-2-deoxy-2-trichloroacetamido-4,6-O-benzylidene-α-D-glucopyranoside], the “inhibition of TNF-α secretion” value in assay [1] (PBMC) is on record as roughly 46%; in assay [1] (THP-1 cells), roughly 54%; in assay [3] (PBMCs), roughly 34%; in assay [3] (THP-1 cells), roughly 100%. Also, the “LPS induced TNF-α secretion” value in assay [2] is on record as “inhibited by RSCL-0409 in a concentration dependent manner”; in assay [5], “inhibitory effects similar to that seen in THP-1 cells”. Further, in assay [4], the “mRNA expression of ICAM-1, COX-2, IL-1β and IL-8” value is listed as “inhibited mRNA expression levels of the tested genes”. Further, the “concentration inhibiting LPS induced TNF-α secretion (as low as)” value in assay [6] came out at 10 µM. Also, the “protein levels of TIRAP and MyD88” value in assay [7] is “Down regulation of TIRAP and also MyD88 at protein levels”. Besides, the “TRIF mRNA levels” value in assay [8] is recorded as “remained unaffected”. Besides, the “expression level of TRAF6” value in assay [8] was “not down regulated significantly”. Besides, the “mRNA expression levels of TIRAP, IRAK1 and IRAK4” value in assay [8] was “inhibits the mRNA expression levels of TIRAP, IL-1R-associated kinase1 (IRAK1) and IRAK4”.
